Values quoted from earlier work in patent publication US20160051485A1, “Biodegradable Bionanoparticles for Releasing the GSE24-2 Peptide, Method for the Production Thereof, and Use of Same” (CONSEJO SUPERIOR DE INVESTIGACIONES (CSIC), priority 2013, published 2016).

System: F9A353V cells
Details: transfection of the peptide using a lipid compound; previous experiments

GSE24.2: fragment of 55 amino acids of the internal domain of dyskerin (TRUB domains), activating telomerase (GFINLDKPSNPSSHEVVAWIRRILRVEKTGHSGTLDPKVTGCLIVCIERATRLVK; listed as Homo sapiens)
Signal of the histone H2AX: reduces the signal of the histone H2AX
